The results in this text go back to the kinase profiling compilation of Christmann-Franck et al. (2016).

What all share (assay): KINOMEscan competition binding
What all share (conditions): compound 10.0 µM

The test system of assay [1] is ABL1 (human), P00519 [F317I].
For a further assay, the target named is WNK3 (human) (UniProt Q9BYP7).
A further assay has as its target GSG2 (human) (UniProt Q8TF76).
A further assay deals with RPS6KA3 KD2 (human) (UniProt P51812).
A further assay deals with BUB1 (human) (UniProt O43683).
Chain of BUB1 (human) (O43683 whole entry, looked up): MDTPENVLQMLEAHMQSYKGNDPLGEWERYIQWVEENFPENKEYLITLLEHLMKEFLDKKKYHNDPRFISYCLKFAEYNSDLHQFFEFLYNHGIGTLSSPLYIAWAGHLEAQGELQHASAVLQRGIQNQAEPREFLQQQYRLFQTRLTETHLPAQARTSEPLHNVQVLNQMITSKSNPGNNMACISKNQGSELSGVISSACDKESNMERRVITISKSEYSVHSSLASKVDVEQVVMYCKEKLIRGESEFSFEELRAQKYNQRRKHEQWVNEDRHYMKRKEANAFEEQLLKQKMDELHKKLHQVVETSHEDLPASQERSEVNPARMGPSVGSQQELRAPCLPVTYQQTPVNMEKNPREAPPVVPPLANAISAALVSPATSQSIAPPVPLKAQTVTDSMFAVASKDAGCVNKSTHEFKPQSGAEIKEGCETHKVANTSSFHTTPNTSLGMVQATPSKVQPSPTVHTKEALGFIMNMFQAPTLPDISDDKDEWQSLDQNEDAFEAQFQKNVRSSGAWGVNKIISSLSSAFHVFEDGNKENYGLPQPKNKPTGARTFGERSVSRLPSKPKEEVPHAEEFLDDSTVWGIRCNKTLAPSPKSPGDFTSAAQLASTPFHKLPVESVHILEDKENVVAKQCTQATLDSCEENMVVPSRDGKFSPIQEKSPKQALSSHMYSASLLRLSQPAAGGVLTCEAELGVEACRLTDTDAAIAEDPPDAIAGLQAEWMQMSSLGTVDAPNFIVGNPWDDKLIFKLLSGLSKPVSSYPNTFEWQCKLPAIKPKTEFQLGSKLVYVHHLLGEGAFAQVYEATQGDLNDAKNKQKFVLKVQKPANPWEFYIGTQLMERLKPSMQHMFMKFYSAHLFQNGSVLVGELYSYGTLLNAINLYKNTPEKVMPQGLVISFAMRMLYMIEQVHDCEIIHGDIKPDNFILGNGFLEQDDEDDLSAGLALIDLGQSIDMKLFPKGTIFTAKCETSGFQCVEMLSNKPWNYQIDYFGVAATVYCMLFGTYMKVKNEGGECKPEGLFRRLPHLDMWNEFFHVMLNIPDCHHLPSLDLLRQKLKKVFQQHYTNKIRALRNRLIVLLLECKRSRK
In the next assay the target is NEK10 (human) (UniProt Q6ZWH5).
A further assay addresses WNK1 (human) (UniProt Q9H4A3).

Chain of ABL1 (human), P00519 [F317I] (P00519 whole entry F317I, looked up): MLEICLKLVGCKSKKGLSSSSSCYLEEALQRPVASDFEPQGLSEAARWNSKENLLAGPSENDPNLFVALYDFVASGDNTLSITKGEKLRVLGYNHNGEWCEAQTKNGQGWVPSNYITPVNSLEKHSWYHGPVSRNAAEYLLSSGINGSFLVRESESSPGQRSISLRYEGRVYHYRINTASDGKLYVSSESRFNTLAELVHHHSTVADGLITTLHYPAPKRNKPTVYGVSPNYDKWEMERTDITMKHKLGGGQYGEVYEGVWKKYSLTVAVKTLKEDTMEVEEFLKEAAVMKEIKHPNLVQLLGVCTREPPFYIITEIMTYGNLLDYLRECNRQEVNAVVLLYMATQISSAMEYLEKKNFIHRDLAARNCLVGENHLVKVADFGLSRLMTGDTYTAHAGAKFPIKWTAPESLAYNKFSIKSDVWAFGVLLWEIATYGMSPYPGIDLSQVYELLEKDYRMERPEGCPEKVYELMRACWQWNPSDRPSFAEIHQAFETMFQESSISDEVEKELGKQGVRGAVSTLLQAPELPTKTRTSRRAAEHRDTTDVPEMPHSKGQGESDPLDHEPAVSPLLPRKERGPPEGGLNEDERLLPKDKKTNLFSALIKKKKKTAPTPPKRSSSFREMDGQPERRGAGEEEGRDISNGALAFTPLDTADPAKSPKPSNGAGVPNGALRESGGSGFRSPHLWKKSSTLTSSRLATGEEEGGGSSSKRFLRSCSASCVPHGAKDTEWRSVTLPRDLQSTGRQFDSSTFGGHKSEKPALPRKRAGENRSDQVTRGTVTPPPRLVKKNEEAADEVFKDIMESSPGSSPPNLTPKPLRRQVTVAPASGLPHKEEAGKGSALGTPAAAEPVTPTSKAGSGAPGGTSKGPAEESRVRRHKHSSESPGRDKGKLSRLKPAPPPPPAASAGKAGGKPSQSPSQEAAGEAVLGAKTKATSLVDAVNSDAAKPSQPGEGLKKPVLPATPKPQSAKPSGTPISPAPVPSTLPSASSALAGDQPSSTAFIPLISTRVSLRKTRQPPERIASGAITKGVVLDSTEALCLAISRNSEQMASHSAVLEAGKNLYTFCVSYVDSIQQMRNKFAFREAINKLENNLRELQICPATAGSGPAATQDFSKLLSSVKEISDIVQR
Chain of WNK1 (human) (Q9H4A3 whole entry, looked up): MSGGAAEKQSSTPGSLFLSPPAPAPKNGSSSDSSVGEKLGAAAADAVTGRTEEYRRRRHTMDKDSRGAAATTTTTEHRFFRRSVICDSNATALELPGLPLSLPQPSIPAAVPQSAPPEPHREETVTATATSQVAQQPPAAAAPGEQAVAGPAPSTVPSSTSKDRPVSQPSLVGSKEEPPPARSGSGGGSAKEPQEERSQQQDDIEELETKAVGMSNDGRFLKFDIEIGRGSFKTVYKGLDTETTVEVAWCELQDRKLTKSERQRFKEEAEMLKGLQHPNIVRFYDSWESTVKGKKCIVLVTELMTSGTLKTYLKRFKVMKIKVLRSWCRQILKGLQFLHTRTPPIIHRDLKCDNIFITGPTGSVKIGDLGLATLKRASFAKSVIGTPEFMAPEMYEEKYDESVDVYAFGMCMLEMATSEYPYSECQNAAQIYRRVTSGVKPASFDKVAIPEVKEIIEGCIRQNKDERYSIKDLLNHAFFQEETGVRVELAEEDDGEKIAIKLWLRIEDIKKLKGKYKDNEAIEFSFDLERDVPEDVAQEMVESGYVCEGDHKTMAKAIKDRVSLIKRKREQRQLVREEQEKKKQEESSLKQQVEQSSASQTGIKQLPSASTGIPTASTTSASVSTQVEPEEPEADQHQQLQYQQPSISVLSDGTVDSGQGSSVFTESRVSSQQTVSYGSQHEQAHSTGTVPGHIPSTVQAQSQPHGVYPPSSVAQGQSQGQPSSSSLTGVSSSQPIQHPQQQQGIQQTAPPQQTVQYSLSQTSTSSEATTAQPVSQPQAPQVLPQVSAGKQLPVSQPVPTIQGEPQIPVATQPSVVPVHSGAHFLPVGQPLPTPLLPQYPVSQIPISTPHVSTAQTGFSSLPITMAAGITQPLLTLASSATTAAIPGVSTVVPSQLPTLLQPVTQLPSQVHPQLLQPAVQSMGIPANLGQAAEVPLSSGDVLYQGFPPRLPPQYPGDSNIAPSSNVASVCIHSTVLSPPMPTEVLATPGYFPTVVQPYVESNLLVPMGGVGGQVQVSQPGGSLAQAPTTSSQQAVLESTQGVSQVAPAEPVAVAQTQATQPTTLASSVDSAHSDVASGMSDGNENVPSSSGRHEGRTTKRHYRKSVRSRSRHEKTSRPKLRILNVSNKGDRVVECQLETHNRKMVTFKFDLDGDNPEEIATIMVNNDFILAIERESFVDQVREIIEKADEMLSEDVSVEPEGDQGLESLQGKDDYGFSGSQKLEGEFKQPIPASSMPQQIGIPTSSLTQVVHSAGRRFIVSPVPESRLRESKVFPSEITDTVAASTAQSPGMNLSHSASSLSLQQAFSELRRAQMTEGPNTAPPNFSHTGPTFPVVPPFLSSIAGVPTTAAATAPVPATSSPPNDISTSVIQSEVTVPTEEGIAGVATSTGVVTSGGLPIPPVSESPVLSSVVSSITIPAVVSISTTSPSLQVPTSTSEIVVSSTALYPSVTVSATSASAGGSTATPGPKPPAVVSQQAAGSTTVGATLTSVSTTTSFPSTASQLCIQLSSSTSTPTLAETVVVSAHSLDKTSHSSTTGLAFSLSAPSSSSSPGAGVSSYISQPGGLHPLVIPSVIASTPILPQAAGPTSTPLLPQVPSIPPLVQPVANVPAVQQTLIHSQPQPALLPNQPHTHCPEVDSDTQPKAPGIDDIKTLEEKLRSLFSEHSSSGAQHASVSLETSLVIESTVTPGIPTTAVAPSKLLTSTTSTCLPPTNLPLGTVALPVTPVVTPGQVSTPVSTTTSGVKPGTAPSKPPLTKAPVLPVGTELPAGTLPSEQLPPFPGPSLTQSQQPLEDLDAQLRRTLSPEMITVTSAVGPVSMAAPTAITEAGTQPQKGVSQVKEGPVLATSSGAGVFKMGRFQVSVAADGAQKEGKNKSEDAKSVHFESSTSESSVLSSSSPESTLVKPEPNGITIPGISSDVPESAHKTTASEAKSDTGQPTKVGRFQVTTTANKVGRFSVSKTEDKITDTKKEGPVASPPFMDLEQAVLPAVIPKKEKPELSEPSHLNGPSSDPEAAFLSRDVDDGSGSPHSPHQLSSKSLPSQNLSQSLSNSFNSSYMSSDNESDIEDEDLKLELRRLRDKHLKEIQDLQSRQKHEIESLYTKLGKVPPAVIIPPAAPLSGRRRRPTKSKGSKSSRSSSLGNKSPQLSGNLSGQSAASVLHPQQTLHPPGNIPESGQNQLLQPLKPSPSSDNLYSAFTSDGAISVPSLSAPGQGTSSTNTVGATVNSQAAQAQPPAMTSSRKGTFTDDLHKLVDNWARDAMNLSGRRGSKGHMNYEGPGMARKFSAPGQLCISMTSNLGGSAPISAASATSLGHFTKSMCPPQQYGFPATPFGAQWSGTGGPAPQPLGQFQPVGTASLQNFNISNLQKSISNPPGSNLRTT

In the case of `COc1cc(C)c(Sc2cnc(NC(=O)c3ccc(CNC(C)C(C)C)cc3)s2)cc1C(=O)N1CCN(C(C)=O)CC1` (stereo unspecified), the kinase still bound, per cent of control in assay [1] is 100%.

In assay [1], `Cc1cn(-c2cc(C(=O)Nc3ccc(C)c(NC(=O)c4ccno4)c3)cc(C(F)(F)F)c2)cn1` came in with a kinase still bound, per cent of control of 0.95%.

Turning to `CCOc1cc(N2CCC(O)CC2)ccc1Nc1ncc2c(n1)N(C)c1ccccc1C(=O)N2C`, the kinase still bound, per cent of control in assay [1] was 30%.

`COc1cc(N2CCC(C(N)=O)CC2)ccc1Nc1nc(N)c(Cl)c(Nc2ccccc2S(=O)(=O)C(C)C)n1`: the kinase still bound, per cent of control in assay [1] was 4.8%.

Turning to `COc1cc2ncnc(Nc3cccc(Cl)c3)c2cc1OC`, the kinase still bound, per cent of control at WNK3 (human) was found to be 78%; on GSG2 (human), 100%; at RPS6KA3 KD2 (human) it was 71%; on BUB1 (human), 0.3%; on NEK10 (human), 91%; at WNK1 (human) it was 71%.

`O=c1[nH]c2ccccc2n1C1CCN(Cc2ccc(-c3nc4cc5[nH]cnc5cc4nc3-c3ccccc3)cc2)CC1`: the kinase still bound, per cent of control at WNK3 (human) was 95%; on GSG2 (human), 100%; at RPS6KA3 KD2 (human), 100%; on BUB1 (human), 64%; on NEK10 (human), 78%; at WNK1 (human), 89%.

As for `CNC(=O)Nc1ccc(-c2nc(N3CC4CCC(C3)O4)c3cnn(C4CCC5(CC4)OCCO5)c3n2)cc1`, the kinase still bound, per cent of control on WNK3 (human) is 100%; on GSG2 (human) it was 100%; on RPS6KA3 KD2 (human), 100%; at BUB1 (human), 52%; at WNK1 (human) it was 95%.
